Test results: the kinase profiling compilation of Christmann-Franck et al. (2016)

Assays:
Assay in all cases: KINOMEscan competition binding
[1] = test system: MET (human), P08581 [M1250T]
ERBB2 (human) = ERBB2 (human) (UniProt P04626)
CAMK2G (human) = CAMK2G (human) (UniProt Q13555)
ACVR1 (human) = ACVR1 (human) (UniProt Q04771)
TLK2 (human) = TLK2 (human) (UniProt Q86UE8)
DYRK1B (human) = DYRK1B (human) (UniProt Q9Y463)
[2] = test system: EIF2AK4 KD2 (human), Q9P2K8 [S808G]
STK38 (human) = STK38 (human) (UniProt Q15208)
IKBKE (human) = IKBKE (human) (UniProt Q14164)
BMPR1B (human) = BMPR1B (human) (UniProt O00238)
IRAK3 (human) = IRAK3 (human) (UniProt Q9Y616)
CIT (human) = CIT (human) (UniProt O14578)
MAP4K2 (human) = MAP4K2 (human) (UniProt Q12851)
EPHB6 (human) = EPHB6 (human) (UniProt O15197)
STK4 (human) = STK4 (human) (UniProt Q13043)
TYRO3 (human) = TYRO3 (human) (UniProt Q06418)
EPHA8 (human) = EPHA8 (human) (UniProt P29322)
MAP3K5 (human) = MAP3K5 (human) (UniProt Q99683)
ACVR1B (human) = ACVR1B (human) (UniProt P36896)
[3] = test system: KIT (human), P10721 [D816V]
CAMK2A (human) = CAMK2A (human) (UniProt Q9UQM7)
[4] = test system: KIT (human), P10721 [L576P]
MAPK1 (human) = MAPK1 (human) (UniProt P28482)
MYLK4 (human) = MYLK4 (human) (UniProt Q86YV6)
SIK2 (human) = SIK2 (human) (UniProt Q9H0K1)
EPHB3 (human) = EPHB3 (human) (UniProt P54753)
TIE1 (human) = TIE1 (human) (UniProt P35590)
EPHA4 (human) = EPHA4 (human) (UniProt P54764)
MAP2K7 (human) = MAP2K7 (human) (UniProt O14733)
CDC2L2 (human) = CDC2L2 (human) (UniProt Q9UQ88)
MST4 (human) = MST4 (human) (UniProt Q9P289)
CDK2 (human) = CDK2 (human) (UniProt P24941)
RIOK2 (human) = RIOK2 (human) (UniProt Q9BVS4)
CAMK1G (human) = CAMK1G (human) (UniProt Q96NX5)
[5] = test system: KIT (human), P10721 [A829P]
CSNK1D (human) = CSNK1D (human) (UniProt P48730)
CAMK1D (human) = CAMK1D (human) (UniProt Q8IU85)
MAP3K6 (human) = MAP3K6 (human) (UniProt O95382)
CLK1 (human) = CLK1 (human) (UniProt P49759)
[6] = test system: ABL1 (human), P00519 [E255K]
SIK3 (human) = SIK3 (human) (UniProt Q9Y2K2)

Sequence of EPHA8 (human) (P29322 whole entry, looked up): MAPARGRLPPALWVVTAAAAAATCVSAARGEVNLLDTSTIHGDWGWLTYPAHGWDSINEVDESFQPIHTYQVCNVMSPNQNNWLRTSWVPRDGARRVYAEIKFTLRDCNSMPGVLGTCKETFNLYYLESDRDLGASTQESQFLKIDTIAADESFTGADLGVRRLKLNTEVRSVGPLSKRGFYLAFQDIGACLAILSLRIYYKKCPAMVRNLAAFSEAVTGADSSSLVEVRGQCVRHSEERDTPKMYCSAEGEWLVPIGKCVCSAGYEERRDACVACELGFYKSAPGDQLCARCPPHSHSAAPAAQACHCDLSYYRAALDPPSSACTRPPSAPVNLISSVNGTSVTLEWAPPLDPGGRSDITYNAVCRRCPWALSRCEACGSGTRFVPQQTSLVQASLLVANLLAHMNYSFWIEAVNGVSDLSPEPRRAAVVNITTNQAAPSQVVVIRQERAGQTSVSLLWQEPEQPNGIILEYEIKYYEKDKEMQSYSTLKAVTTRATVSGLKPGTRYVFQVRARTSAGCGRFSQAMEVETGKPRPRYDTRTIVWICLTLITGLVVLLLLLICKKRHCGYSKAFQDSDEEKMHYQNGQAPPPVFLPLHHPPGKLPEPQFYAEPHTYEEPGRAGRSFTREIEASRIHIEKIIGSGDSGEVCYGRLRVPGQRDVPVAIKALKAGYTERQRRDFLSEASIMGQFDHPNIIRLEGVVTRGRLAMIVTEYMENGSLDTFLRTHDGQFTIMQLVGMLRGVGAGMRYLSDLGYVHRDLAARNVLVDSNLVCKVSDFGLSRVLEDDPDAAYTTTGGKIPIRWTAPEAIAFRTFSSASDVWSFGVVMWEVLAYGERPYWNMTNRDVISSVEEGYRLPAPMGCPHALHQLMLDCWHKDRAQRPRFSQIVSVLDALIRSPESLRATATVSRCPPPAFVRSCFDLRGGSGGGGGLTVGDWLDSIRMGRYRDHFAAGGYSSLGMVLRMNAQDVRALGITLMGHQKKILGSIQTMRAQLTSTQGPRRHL
Sequence of DYRK1B (human) (Q9Y463 whole entry, looked up): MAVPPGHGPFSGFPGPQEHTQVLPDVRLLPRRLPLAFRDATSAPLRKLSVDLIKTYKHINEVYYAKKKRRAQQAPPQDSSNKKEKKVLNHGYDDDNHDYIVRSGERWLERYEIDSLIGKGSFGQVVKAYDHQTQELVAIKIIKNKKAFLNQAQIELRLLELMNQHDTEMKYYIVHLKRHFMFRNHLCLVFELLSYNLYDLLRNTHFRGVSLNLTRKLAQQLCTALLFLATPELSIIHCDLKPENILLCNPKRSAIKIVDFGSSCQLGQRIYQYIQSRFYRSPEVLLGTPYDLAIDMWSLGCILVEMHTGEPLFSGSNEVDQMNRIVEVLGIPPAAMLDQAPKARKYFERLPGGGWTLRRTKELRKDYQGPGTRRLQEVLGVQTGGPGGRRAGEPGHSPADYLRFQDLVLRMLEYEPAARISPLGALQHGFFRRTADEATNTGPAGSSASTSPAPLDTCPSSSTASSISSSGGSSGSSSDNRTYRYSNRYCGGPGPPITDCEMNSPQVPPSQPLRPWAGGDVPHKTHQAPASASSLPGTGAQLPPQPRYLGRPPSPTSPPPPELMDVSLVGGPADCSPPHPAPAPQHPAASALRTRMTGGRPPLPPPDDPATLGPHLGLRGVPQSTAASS
Sequence of MST4 (human) (Q9P289 whole entry, looked up): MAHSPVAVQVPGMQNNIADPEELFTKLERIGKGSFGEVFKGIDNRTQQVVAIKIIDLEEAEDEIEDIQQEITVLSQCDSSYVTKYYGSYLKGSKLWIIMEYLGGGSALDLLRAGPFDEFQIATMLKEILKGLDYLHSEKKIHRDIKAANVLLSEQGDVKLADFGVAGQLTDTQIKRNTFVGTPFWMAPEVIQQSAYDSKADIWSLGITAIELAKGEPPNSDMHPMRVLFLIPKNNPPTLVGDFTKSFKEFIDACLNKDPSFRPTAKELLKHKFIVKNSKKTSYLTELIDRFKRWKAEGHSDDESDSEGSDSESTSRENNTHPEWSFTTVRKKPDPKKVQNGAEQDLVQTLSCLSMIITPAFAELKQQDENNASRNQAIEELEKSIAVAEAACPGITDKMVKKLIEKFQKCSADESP
Sequence of MAP3K5 (human) (Q99683 whole entry, looked up): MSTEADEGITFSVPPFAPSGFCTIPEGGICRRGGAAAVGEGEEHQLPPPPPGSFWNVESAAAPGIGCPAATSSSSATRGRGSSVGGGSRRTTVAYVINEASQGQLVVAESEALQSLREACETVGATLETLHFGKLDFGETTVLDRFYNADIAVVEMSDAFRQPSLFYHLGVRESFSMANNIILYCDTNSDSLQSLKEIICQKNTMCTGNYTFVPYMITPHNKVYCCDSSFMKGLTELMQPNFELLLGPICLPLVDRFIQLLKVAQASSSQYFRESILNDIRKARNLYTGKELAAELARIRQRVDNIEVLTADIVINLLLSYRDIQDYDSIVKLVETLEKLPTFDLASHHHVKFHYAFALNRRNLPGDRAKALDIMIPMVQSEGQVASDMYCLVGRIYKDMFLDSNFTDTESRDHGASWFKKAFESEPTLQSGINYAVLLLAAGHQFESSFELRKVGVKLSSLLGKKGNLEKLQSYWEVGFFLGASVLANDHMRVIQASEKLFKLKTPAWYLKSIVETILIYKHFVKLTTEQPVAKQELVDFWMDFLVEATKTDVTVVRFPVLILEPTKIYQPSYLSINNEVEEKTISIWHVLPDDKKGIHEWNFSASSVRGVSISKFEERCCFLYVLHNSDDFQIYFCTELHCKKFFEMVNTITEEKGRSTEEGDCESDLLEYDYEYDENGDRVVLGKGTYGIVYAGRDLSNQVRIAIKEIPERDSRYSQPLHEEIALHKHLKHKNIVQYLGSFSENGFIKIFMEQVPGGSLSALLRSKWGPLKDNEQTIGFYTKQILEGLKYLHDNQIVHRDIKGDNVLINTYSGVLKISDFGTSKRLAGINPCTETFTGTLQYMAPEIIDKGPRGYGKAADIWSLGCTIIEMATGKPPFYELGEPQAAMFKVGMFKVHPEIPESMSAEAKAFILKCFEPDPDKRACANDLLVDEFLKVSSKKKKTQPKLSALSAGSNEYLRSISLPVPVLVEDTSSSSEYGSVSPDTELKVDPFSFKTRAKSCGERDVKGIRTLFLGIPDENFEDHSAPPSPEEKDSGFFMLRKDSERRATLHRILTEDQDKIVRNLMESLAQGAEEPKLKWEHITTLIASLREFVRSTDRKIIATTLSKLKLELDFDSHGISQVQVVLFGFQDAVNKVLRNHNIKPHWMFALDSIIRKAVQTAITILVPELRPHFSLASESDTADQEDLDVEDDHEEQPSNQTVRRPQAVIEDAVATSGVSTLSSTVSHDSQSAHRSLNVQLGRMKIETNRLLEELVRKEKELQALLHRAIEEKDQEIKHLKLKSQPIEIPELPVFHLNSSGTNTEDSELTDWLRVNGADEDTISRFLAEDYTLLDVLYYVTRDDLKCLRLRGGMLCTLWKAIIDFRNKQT
Sequence of ERBB2 (human) (P04626 whole entry, looked up): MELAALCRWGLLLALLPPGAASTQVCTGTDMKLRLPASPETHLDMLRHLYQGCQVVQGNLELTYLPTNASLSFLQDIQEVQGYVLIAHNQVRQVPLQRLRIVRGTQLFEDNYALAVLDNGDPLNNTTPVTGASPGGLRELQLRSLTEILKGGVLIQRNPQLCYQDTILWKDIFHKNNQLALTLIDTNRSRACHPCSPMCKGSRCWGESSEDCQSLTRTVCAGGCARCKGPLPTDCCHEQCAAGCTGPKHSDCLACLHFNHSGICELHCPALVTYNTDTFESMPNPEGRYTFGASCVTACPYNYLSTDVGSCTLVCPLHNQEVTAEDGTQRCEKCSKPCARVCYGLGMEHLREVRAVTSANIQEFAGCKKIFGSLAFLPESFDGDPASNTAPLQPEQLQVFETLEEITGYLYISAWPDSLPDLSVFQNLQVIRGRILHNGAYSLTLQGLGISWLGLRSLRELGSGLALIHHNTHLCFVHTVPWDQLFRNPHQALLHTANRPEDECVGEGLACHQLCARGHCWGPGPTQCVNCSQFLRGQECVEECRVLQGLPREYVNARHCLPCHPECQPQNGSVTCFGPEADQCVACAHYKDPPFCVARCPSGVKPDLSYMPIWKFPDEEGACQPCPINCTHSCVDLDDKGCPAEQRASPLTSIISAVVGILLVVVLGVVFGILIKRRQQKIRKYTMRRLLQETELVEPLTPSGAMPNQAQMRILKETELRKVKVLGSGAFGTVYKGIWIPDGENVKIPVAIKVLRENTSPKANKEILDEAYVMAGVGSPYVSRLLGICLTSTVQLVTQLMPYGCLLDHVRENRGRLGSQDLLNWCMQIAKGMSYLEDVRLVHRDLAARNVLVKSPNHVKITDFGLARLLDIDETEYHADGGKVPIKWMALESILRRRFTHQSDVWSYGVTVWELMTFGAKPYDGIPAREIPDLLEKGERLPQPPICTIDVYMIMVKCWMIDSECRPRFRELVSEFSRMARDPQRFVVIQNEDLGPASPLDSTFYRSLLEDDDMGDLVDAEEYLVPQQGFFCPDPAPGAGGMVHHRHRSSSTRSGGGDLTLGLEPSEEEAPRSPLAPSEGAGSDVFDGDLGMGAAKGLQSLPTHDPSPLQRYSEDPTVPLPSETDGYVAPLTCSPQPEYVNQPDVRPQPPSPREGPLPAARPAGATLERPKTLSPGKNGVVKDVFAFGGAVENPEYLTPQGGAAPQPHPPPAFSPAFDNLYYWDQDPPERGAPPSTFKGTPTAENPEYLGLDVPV
Sequence of MYLK4 (human) (Q86YV6 whole entry, looked up): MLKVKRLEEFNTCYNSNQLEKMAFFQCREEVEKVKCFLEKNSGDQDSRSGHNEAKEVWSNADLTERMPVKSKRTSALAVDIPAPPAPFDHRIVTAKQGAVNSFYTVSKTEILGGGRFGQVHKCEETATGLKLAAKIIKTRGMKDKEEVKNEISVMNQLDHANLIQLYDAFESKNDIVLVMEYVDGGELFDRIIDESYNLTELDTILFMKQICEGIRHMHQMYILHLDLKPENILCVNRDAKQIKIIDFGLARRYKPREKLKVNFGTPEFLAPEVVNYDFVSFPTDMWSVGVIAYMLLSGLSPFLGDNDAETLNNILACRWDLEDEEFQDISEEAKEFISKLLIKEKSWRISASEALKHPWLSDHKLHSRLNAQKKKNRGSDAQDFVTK

Cc1ccc(NC(=O)c2ccc(NC(=O)/C=C/CN(C)C)cc2)cc1Nc1nccc(-c2cccnc2)n1
kinase still bound, per cent of control ([1]; compound 10.0 µM): 100%
kinase still bound, per cent of control (ERBB2 (human); compound 10.0 µM): 50%
kinase still bound, per cent of control (CAMK2G (human); compound 10.0 µM): 95%
kinase still bound, per cent of control (ACVR1 (human); compound 10.0 µM): 100%
kinase still bound, per cent of control (TLK2 (human); compound 10.0 µM): 100%
kinase still bound, per cent of control (DYRK1B (human); compound 10.0 µM): 68%
kinase still bound, per cent of control ([2]; compound 10.0 µM): 100%
kinase still bound, per cent of control (STK38 (human); compound 10.0 µM): 80%
kinase still bound, per cent of control (IKBKE (human); compound 10.0 µM): 100%
kinase still bound, per cent of control (BMPR1B (human); compound 10.0 µM): 79%
kinase still bound, per cent of control (IRAK3 (human); compound 10.0 µM): 28%
kinase still bound, per cent of control (CIT (human); compound 10.0 µM): 59%
kinase still bound, per cent of control (MAP4K2 (human); compound 10.0 µM): 81%
kinase still bound, per cent of control (EPHB6 (human); compound 10.0 µM): 26%
kinase still bound, per cent of control (STK4 (human); compound 10.0 µM): 100%
kinase still bound, per cent of control (TYRO3 (human); compound 10.0 µM): 100%
kinase still bound, per cent of control (EPHA8 (human); compound 10.0 µM): 81%
kinase still bound, per cent of control (MAP3K5 (human); compound 10.0 µM): 100%
kinase still bound, per cent of control (ACVR1B (human); compound 10.0 µM): 70%
kinase still bound, per cent of control ([3]; compound 10.0 µM): 38%
kinase still bound, per cent of control (CAMK2A (human); compound 10.0 µM): 93%
kinase still bound, per cent of control ([4]; compound 10.0 µM): 0%
kinase still bound, per cent of control (MAPK1 (human); compound 10.0 µM): 82%
kinase still bound, per cent of control (MYLK4 (human); compound 10.0 µM): 55%
kinase still bound, per cent of control (SIK2 (human); compound 10.0 µM): 80%
kinase still bound, per cent of control (EPHB3 (human); compound 10.0 µM): 100%
kinase still bound, per cent of control (TIE1 (human); compound 10.0 µM): 80%
kinase still bound, per cent of control (EPHA4 (human); compound 10.0 µM): 100%
kinase still bound, per cent of control (MAP2K7 (human); compound 10.0 µM): 100%
kinase still bound, per cent of control (CDC2L2 (human); compound 10.0 µM): 100%
kinase still bound, per cent of control (MST4 (human); compound 10.0 µM): 53%
kinase still bound, per cent of control (CDK2 (human); compound 10.0 µM): 95%
kinase still bound, per cent of control (RIOK2 (human); compound 10.0 µM): 3.2%
kinase still bound, per cent of control (CAMK1G (human); compound 10.0 µM): 79%
kinase still bound, per cent of control ([5]; compound 10.0 µM): 17%
kinase still bound, per cent of control (CSNK1D (human); compound 10.0 µM): 54%
kinase still bound, per cent of control (CAMK1D (human); compound 10.0 µM): 85%
kinase still bound, per cent of control (MAP3K6 (human); compound 10.0 µM): 100%
kinase still bound, per cent of control (CLK1 (human); compound 10.0 µM): 24%
kinase still bound, per cent of control ([6]; compound 10.0 µM): 64%
kinase still bound, per cent of control (SIK3 (human); compound 10.0 µM): 100%

CN(C)C/C=C/C(=O)Nc1cccc(C(=O)Nc2ccc(Nc3nccc(/C(C#N)=C4\Nc5ccccc5S4)n3)cc2)c1
kinase still bound, per cent of control ([1]; compound 1.0 µM): 79%
kinase still bound, per cent of control (ERBB2 (human); compound 1.0 µM): 100%
kinase still bound, per cent of control (CAMK2G (human); compound 1.0 µM): 100%
kinase still bound, per cent of control (ACVR1 (human); compound 1.0 µM): 100%
kinase still bound, per cent of control (TLK2 (human); compound 1.0 µM): 100%
kinase still bound, per cent of control (DYRK1B (human); compound 1.0 µM): 66%
kinase still bound, per cent of control ([2]; compound 1.0 µM): 55%
kinase still bound, per cent of control (STK38 (human); compound 1.0 µM): 100%
kinase still bound, per cent of control (IKBKE (human); compound 1.0 µM): 100%
kinase still bound, per cent of control (BMPR1B (human); compound 1.0 µM): 100%
kinase still bound, per cent of control (IRAK3 (human); compound 1.0 µM): 51%
kinase still bound, per cent of control (CIT (human); compound 1.0 µM): 65%
kinase still bound, per cent of control (MAP4K2 (human); compound 1.0 µM): 100%
kinase still bound, per cent of control (EPHB6 (human); compound 1.0 µM): 49%
kinase still bound, per cent of control (STK4 (human); compound 1.0 µM): 100%
kinase still bound, per cent of control (TYRO3 (human); compound 1.0 µM): 100%
kinase still bound, per cent of control (EPHA8 (human); compound 1.0 µM): 100%
kinase still bound, per cent of control (MAP3K5 (human); compound 1.0 µM): 100%
kinase still bound, per cent of control (ACVR1B (human); compound 1.0 µM): 96%
kinase still bound, per cent of control ([3]; compound 1.0 µM): 41%
kinase still bound, per cent of control (CAMK2A (human); compound 1.0 µM): 100%
kinase still bound, per cent of control ([4]; compound 1.0 µM): 100%
kinase still bound, per cent of control (MAPK1 (human); compound 1.0 µM): 100%
kinase still bound, per cent of control (MYLK4 (human); compound 1.0 µM): 20%
kinase still bound, per cent of control (SIK2 (human); compound 1.0 µM): 100%
kinase still bound, per cent of control (EPHB3 (human); compound 1.0 µM): 95%
kinase still bound, per cent of control (TIE1 (human); compound 1.0 µM): 70%
kinase still bound, per cent of control (EPHA4 (human); compound 1.0 µM): 100%
kinase still bound, per cent of control (MAP2K7 (human); compound 1.0 µM): 100%
kinase still bound, per cent of control (CDC2L2 (human); compound 1.0 µM): 39%
kinase still bound, per cent of control (MST4 (human); compound 1.0 µM): 100%
kinase still bound, per cent of control (CDK2 (human); compound 1.0 µM): 100%
kinase still bound, per cent of control (RIOK2 (human); compound 1.0 µM): 18%
kinase still bound, per cent of control (CAMK1G (human); compound 1.0 µM): 100%
kinase still bound, per cent of control ([5]; compound 1.0 µM): 100%
kinase still bound, per cent of control (CSNK1D (human); compound 1.0 µM): 26%
kinase still bound, per cent of control (CAMK1D (human); compound 1.0 µM): 100%
kinase still bound, per cent of control (MAP3K6 (human); compound 1.0 µM): 100%
kinase still bound, per cent of control (CLK1 (human); compound 1.0 µM): 42%
kinase still bound, per cent of control ([6]; compound 1.0 µM): 100%
kinase still bound, per cent of control (SIK3 (human); compound 1.0 µM): 100%
